Results from patent publication US20250034170A1, “SMALL MOLECULE MODULATORS OF GLUCOCEREBROSIDASE ACTIVITY AND USES THEREOF” (Vanqua Bio, Inc., priority 2021, published 2025).

Target: T1, GCase (Homo sapiens, UniProt P04062)
T1 construct: endogenous in cells; host or cells: HeLa cells
T1 sequence (P04062 40-536): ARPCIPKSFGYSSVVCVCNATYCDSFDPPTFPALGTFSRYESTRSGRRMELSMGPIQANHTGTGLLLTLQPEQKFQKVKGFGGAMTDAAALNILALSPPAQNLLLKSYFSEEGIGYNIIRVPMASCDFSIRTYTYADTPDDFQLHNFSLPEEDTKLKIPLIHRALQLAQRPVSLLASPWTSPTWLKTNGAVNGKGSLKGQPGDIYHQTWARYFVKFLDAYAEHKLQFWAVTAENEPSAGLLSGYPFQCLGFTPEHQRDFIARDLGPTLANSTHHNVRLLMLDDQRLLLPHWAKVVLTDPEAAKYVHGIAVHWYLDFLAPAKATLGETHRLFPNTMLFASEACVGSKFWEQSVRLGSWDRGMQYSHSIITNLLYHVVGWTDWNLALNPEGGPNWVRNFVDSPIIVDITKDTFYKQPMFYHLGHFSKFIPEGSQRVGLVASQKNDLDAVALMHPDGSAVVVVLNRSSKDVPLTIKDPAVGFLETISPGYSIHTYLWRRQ
Assay: activation of GCase in a live cell PFB assay in HELA cells
Type: cell-based
Details: EC50 given as range classes
Procedure: Exemplary compounds were evaluated for activation of GCase in a live cell PFB assay in HELA cells (essentially as described in Ysselstein et al., “LRRK2 kinase activity regulates lysosomal glucocerebrosidase in neurons derived from Parkinson's disease patients” Nature Communications (2019) 10:5570). […] EC50 ranges: A: <10 μM; B: >10-50 μM; C: >50-100 μM; D: >100 μM.

SMILES	EC50 [µM]
FC(F)Cn1ncc2ncc(N3CC4(CCN(c5cncc(C(F)(F)F)c5)C4)C3)nc21 [Compound 184, 2-[1-(2,2-difluoroethyl)-1H-pyrazolo[3,4-b]pyrazin-6-yl]-6-[5-(trifluoromethyl)pyridin-3-yl]-2,6-diazaspiro[3.4]octane]	10 to 50
FC(F)Cn1ncc2ncc(N3CC4(CCN(c5cccc(C(F)(F)F)n5)C4)C3)nc21 [Compound 185, 2-[1-(2,2-difluoroethyl)-1H-pyrazolo[3,4-b]pyrazin-6-yl]-6-[6-(trifluoromethyl)pyridin-2-yl]-2,6-diazaspiro[3.4]octane]	> 100
FC(F)Cn1ncc2ncc(N3CCC4(CN(c5ccc(C(F)(F)F)cn5)C4)C3)nc21 [Compound 186, 6-[1-(2,2-difluoroethyl)-1H-pyrazolo[3,4-b]pyrazin-6-yl]-2-[5-(trifluoromethyl)pyridin-2-yl]-2,6-diazaspiro[3.4]octane]	10 to 50
FC(F)Cn1ncc2ncc(N3CCC4(CN(c5cc(C(F)(F)F)ccn5)C4)C3)nc21 [Compound 187, 6-[1-(2,2-difluoroethyl)-1H-pyrazolo[3,4-b]pyrazin-6-yl]-2-[4-(trifluoromethyl)pyridin-2-yl]-2,6-diazaspiro[3.4]octane]	10 to 50
FC(F)Cn1ncc2ncc(N3CCC4(CCCN4c4ccnc(C(F)(F)F)c4)C3)nc21 (stereo not shown) [Compound 188, 7-[1-(2,2-difluoroethyl)-1H-pyrazolo[3,4-b]pyrazin-6-yl]-1-[2-(trifluoromethyl)pyridin-4-yl]-1,7-diazaspiro[4.4]nonane]	> 100

Results, then the compound that gave them:

EC50 [µM]	SMILES
< 10	FC(F)Cn1ncc2ncc(NC3CCC4(C3)CN(c3ccc(C(F)(F)F)nc3)C4)nc21 (stereo not shown) [Compound 189, N-[1-(2,2-difluoroethyl)-1H-pyrazolo[3,4-b]pyrazin-6-yl]-2-[6-(trifluoromethyl)pyridin-3-yl]-2-azaspiro[3.4]octan-6-amine]
< 10	FC(F)Cn1ncc2ncc(NC3CCC4(C3)CN(c3cc(C(F)(F)F)ccn3)C4)nc21 (stereo not shown) [Compound 190, N-[1-(2,2-difluoroethyl)-1H-pyrazolo[3,4-b]pyrazin-6-yl]-2-[4-(trifluoromethyl)pyridin-2-yl]-2-azaspiro[3.4]octan-6-amine]
